The record followed here is ChEMBL document CHEMBL3612065, “Development of N-hydroxybenzamide derivatives with indole-containing cap group as histone deacetylases inhibitors” (Bioorg Med Chem, 2015).

Each structure is given as a SMILES string.

A short description of assay [1]: Inhibition of Class 1 histone deacetylase isolated from human HeLa cell nuclear extracts using Boc-Lys (acetyl)-AMC as substrate preincubated for 10 mins followed by substrate addition measured after 30 mins by fluorescence assay. The assay is classed as cell-based.
The test system of assay [2] is HeLa. Put plainly: Ratio of IC50 for Class 1 histone deacetylase in human PC3 cells to IC50 for Class 1 histone deacetylase isolated from human HeLa cell nuclear extracts.
Assay [3] has as its system PC-3. Put plainly: Cytotoxicity against human PC3 cells assessed as growth inhibition after 48 hrs by MTT assay. The settings on record: PC-3, 48 h. The assay is classed as functional, cell-based.
The test system of assay [4] is U-937. Put plainly: Cytotoxicity against human U937 cells assessed as growth inhibition after 48 hrs by MTT assay. The settings on record: U-937, 48 h. The assay is classed as functional, cell-based. For orientation: Formazan colour is commonly taken as a measure of viable cells.
In assay [5] the test system is PC-3. Put plainly: Inhibition of Class 1 histone deacetylase in human PC3 cells using Boc-Lys (acetyl)-AMC as substrate preincubated for 3 hrs followed by substrate addition measured after 3 hrs by fluorescence assay. The assay is classed as cell-based.
The subject of assay [6] is HEL. Put plainly: Cytotoxicity against human HEL cells assessed as growth inhibition after 48 hrs by MTT assay. It counts as functional, cell-based.
Assay [7] in a line: Cytotoxicity against human U266 cells assessed as growth inhibition after 48 hrs by MTT assay. The assay is classed as functional, cell-based. The settings on record: U-266, 48 h.
The test system of assay [8] is PC-3. Put plainly: Inhibition of Class 2a histone deacetylase in human PC3 cells using Boc-Lys (triflouroacetyl)-AMC as substrate preincubated for 3 hrs followed by substrate addition measured after 3 hrs by fluorescence assay. The assay is classed as cell-based.
In assay [9] the test system is PC-3. The experiment in a line: Selectivity ratio of IC50 for Class 2a histone deacetylase in human PC3 to IC50 for Class 1 histone deacetylase in human PC3 cells. It counts as cell-based.
The subject of assay [10] is K562. Put plainly: Cytotoxicity against human K562 cells assessed as growth inhibition after 48 hrs by MTT assay. The assay is classed as functional, cell-based. Conditions: K562, 48 h.
Assay [11] concerns HCT-116. Put plainly: Cytotoxicity against human HCT116 cells assessed as growth inhibition after 48 hrs by MTT assay. The settings on record: HCT-116, 48 h. The assay is classed as functional, cell-based.
Assay [12] relates to HeLa. Put plainly: Potency index, ratio of SAHA IC50 to compound IC50 for Class 1 histone deacetylase isolated from human HeLa cell nuclear extracts. The assay is classed as cell-based.

Broadly, the IC50 is the midpoint of a concentration-inhibition curve.

On to `O=C(NO)c1ccc(NC(=O)[C@H](Cc2c[nH]c3ccccc23)NC(=O)c2ccccc2)cc1`, for which the midpoint of inhibition in assay [1], the IC50, lay at 23.8 nM.

In the case of `O=C(NO)c1ccc(NC(=O)[C@H](Cc2c[nH]c3ccccc23)NC(=O)c2ccncc2)cc1`, in assay [1], the IC50 stood at 100 nM. As to `CC(C)=CC(=O)N[C@@H](Cc1c[nH]c2ccccc12)C(=O)Nc1ccc(C(=O)NO)cc1`, the midpoint of inhibition in [1], the IC50, lay at 139 nM. For the compound `O=C(Cc1ccccc1)N[C@@H](Cc1c[nH]c2ccccc12)C(=O)Nc1ccc(C(=O)NO)cc1`, the IC50 in assay [1] turned out to be 47.5 nM. As for `O=C(NO)c1ccc(NC(=O)[C@H](Cc2c[nH]c3ccccc23)NS(=O)(=O)c2ccccc2)cc1`, the midpoint of inhibition in assay [1], the IC50, lay at 178 nM.

The compound `COc1ccc(C(=O)N[C@@H](Cc2c[nH]c3ccccc23)C(=O)Nc2ccc(C(=O)NO)cc2)cc1` displayed an IC50 in assay [1] of 8.6 nM. Same read-out and setting: the figure for `CC(=O)N[C@@H](Cc1c[nH]c2ccccc12)C(=O)Nc1ccc(C(=O)NO)cc1` is 425 nM; for `O=C(CCCc1ccccc1)N[C@@H](Cc1c[nH]c2ccccc12)C(=O)Nc1ccc(C(=O)NO)cc1` it is 98.7 nM.

Regarding `O=C(NO)c1ccc(NC(=O)[C@H](Cc2c[nH]c3ccccc23)NC(=O)c2ccco2)cc1`, the “Ratio IC50” value is 11 in assay [2] and 2 in assay [9]. Also, the IC50 is 3340 nM in [3]; 3430 nM in assay [4]; 333 nM in [5]; 3360 nM in [6]; 3760 nM in assay [7]; 665 nM in [8]. Besides, the values for the IC50 in assay [10], in [11] and in assay [1] were 4560 nM, 2770 nM and 31 nM, respectively. The compound `CC(C)(C)OC(=O)N[C@H](C(=O)Nc1ccc(C(=O)NO)cc1)c1ccccc1` had an IC50 in assay [1] of 123 nM. Still for that read-out and setting: the figure for `CCCC(CCC)C(=O)N[C@@H](Cc1c[nH]c2ccccc12)C(=O)Nc1ccc(C(=O)NO)cc1` is 212 nM. The compound `O=C(NO)c1ccc(NC(=O)[C@H](Cc2c[nH]c3ccccc23)NC(=O)c2ccc(C(F)(F)F)cc2)cc1` displayed an IC50 in assay [1] of 30 nM.

For `O=C(NO)c1ccc(NC(=O)[C@H](Cc2c[nH]c3ccccc23)NC(=O)c2ccc(F)cc2)cc1`, the IC50 in assay [1] was 2.4 nM. Regarding `O=C(NO)c1ccc(NC(=O)[C@H](Cc2c[nH]c3ccccc23)NC(=O)c2ccc(Cl)cc2)cc1`, the “Ratio IC50” value in assay [2] worked out at 22; in assay [12] it was 100; in assay [9], 2. For the same compound, the IC50 in assay [3] is 740 nM; in assay [4], 1090 nM; in assay [5], 33.2 nM; in [6] it was 1970 nM; in [7], 1010 nM; in [8], 60.1 nM. The IC50 turned out to be 1670 nM in assay [10], 1450 nM in assay [11] and 1.5 nM in assay [1].

Compound `Cc1ccc(C(=O)N[C@@H](Cc2c[nH]c3ccccc23)C(=O)Nc2ccc(C(=O)NO)cc2)cc1` had an IC50 in assay [1] of 13 nM. As for `COc1cc(CCC(=O)Nc2ccc(C(=O)NO)cc2)ccc1OCc1cccs1`, half-maximal inhibition in [1] (IC50) was put at 192 nM. As to `O=C(NO)c1ccc(NC(=O)[C@H](Cc2c[nH]c3ccccc23)NC(=O)c2cc(Cl)cc(Cl)c2)cc1`, the IC50 in [1] was 41.2 nM. The compound `O=C(NO)c1ccc(NC(=O)[C@H](Cc2c[nH]c3ccccc23)NC(=O)c2ccc(Cl)cc2Cl)cc1` showed an IC50 in assay [1] of 23.3 nM. Same read-out and setting: the figure for `O=C(NO)c1ccc(NC(=O)[C@H](Cc2c[nH]c3ccccc23)NC(=O)c2ccccc2Cl)cc1` is 157 nM; for `CC(C)(C)OC(=O)N[C@@H](Cc1c[nH]c2ccccc12)C(=O)Nc1ccc(C(=O)NO)cc1` it is 280 nM; for `CCS(=O)(=O)N[C@@H](Cc1c[nH]c2ccccc12)C(=O)Nc1ccc(C(=O)NO)cc1` it is 1090 nM. The compound `O=C(CCc1ccccc1)N[C@@H](Cc1c[nH]c2ccccc12)C(=O)Nc1ccc(C(=O)NO)cc1` yielded an IC50 in assay [1] of 59.7 nM. The same measure, in the same setting: the figure for `O=C(NO)c1ccc(NC(=O)[C@H](Cc2c[nH]c3ccccc23)NC(=O)c2ccc(Br)cc2)cc1` is 3.7 nM.

As to `O=C(NO)c1ccc(NC(=O)[C@H](Cc2c[nH]c3ccccc23)NC(=O)c2ccc3ccccc3c2)cc1`, in assay [1], the 50% inhibitory concentration (IC50) is 27 nM. Turning to `CC(C)C(=O)N[C@@H](Cc1c[nH]c2ccccc12)C(=O)Nc1ccc(C(=O)NO)cc1`, the IC50 in assay [1] was found to be 526 nM. For `O=C(NO)c1ccc(NC(=O)[C@H](Cc2c[nH]c3ccccc23)NC(=O)c2cccc(Cl)c2)cc1`, in assay [1], inhibition was half-maximal at 43.1 nM (IC50).

In [1], `O=C(/C=C/c1ccc(OC[C@H](Cc2c[nH]c3ccccc23)NC(=O)c2ccc(Cl)cc2)cc1)NO` returned an IC50 of 6.8 nM. On the same count and under the same terms, then `CCC(CC)C(=O)N[C@@H](Cc1c[nH]c2ccccc12)C(=O)Nc1ccc(C(=O)NO)cc1`, with 333 nM; and `CN(C)c1ccc(C(=O)N[C@@H](Cc2c[nH]c3ccccc23)C(=O)Nc2ccc(C(=O)NO)cc2)cc1`, with 4.7 nM. In assay [1], `Cc1ccc(S(=O)(=O)N[C@@H](Cc2c[nH]c3ccccc23)C(=O)Nc2ccc(C(=O)NO)cc2)cc1` had an IC50 of 196 nM.
